Usually IC50 stands for the midpoint of a concentration-inhibition curve.

Data on 2 compounds can be found in patent US20250282764A1, “IMIDAZOLE HETEROCYCLE BASED COMPOUNDS AND METHODS OF TREATING CANCER” (King Abdulaziz University, priority 2024, published 2025).

The subject of series [1] is HL60. The series can be described thus: CellTiter-Blue cell viability assay, HL60. It counts as cell-based, human. The note with it: 48 h, mean of triplicates. Here is the method:
(§1) Cell culture of leukemia cell lines model was performed as follows. HL60, K562, and NB4 cell lines were purchased from CLS Cell Line Service GmbH (Eppelheim, Germany). MV4-11 cell line was purchased from American Type Culture Collection (ATCC; Virginia, USA). KG1α also referred to as KG1a was a gift from Prof. Ghulam Mufti (King College London, UK). Kasumi-1 cell line was purchased from Nawah Scientific (Cairo, Egypt). All cell lines were cultured in Roswell Park Memorial Institute-1640 (RPMI-1640) culture medium supplemented with 10% fetal bovine serum (FBS) (Thermo Fisher Scientific) and 0.1% ciprofloxacin (10 μg/ml; Cipla Limited; Mumbai, India). Cells were maintained in a humidified incubator at 37° C. with 5% CO2.
(§2) Cell viability was determined using the CellTiter-Blue® Cell Viability Assay kit (Promega, Madison, WI, USA). Approximately […] were plated in 96 well plate in the presence of increasing drug concentration in triplicate and incubated for 48 h at 37° C. in a humidified incubator. After the incubation period, 20 μL of the cell titer blue reagent was added to each well and the plate was incubated for additional 2 h for the development of florescence. Florescence was measured at 540Ex/590Em on SpectraMax i3 Multi-Mode Microplate Reader (Molecular Devices, LLC; San Jose, CA, USA). […]
A general note: Alamar Blue is a resazurin reagent that responds to reducing activity.

Series [2] deals with K562. As to the kind of experiment: CellTiter-Blue cell viability assay, K562. It counts as cell-based, human. Particulars: 48 h, mean of triplicates. Here is the method: as §1, §2
The test system of series [3] is PC3 prostate cancer. The note with it: previous study (Khayat et al.); cited from earlier work.
The subject of series [4] is MCF7 breast cancer. The note with it: previous study (Khayat et al.); cited from earlier work.
The test system of series [5] is HCT116 CRC cells. The note with it: previous study (Khayat et al.); cited from earlier work.
Series [6] has as its system NB4, HL60, and KG1a leukemia cell lines. The note with it: previous study (Khayat et al.); range over three lines; cited from earlier work.
The test system of series [7] is cell cycle. Particulars: concentration of 1 μM; previous study; cited from earlier work.
The test system of series [8] is caspase-3. Particulars: concentration of 1 μM; previous study; cited from earlier work.
For series [9] the following is noted: previous study profiling; cited from earlier work.
Series [10] has as its system CYP450 metabolizing enzymes (3A4, 2D6, and 2C9). Particulars: previous study; cited from earlier work.
Series [11] relates to DLD1. The series can be described thus: Annexin V apoptosis assay (flow cytometry), DLD1. The note with it: IC50 and 2×IC50, 48 h, vs basal conditions; dose dependent. It counts as cell-based, human. The protocol: (§3) Apoptosis assay for colorectal carcinoma cell lines model was performed as follows. Cells were cultured in T25 culture flasks at a density of 3×10^5 cells for DLD-1, 4×10^5 cells for HCT116, and 5×10^5 cells for HT29 cells and treated with IC50 and 2×IC50 of compound (Id) for 48 h. The experiments were performed in triplicates. To measure apoptosis, an Annexin V APC staining assay (BD Biosciences, San Jose, CA, USA) was performed according to the manufacturer's recommendations, and 10,000 events were acquired using a FACSAria III flow cytometer (BD Biosciences, San Jose, CA, USA).
A general note: Flow cytometry measures light scatter and fluorescence of single cells or particles in a stream.

In series [12] the test system is HCT116. As to the kind of experiment: Annexin V apoptosis assay (flow cytometry), HCT116. Format: cell-based, human. Particulars: IC50 and 2×IC50, 48 h, vs basal conditions; dose dependent. The protocol:
as §3

Series [13] concerns HT29. The series can be described thus: Annexin V apoptosis assay (flow cytometry), HT29. Format: cell-based, human. Particulars: IC50 and 2×IC50, 48 h, vs basal conditions; dose dependent. Here is the method:
as §3

The subject of series [14] is HL60. As to the kind of experiment: Annexin V/7AAD apoptosis assay, HL60. Format: cell-based, human. Particulars: approximately 2×IC50, 48 h. The protocol:
(§4) Apoptosis assay for leukemia cells was performed as follows. Cells were cultured in 6-well plates at a density of 3× 10^5 cells per well and treated with approximately 2×IC50 values of compound (Id) for 48 h. The experiments were performed in duplicates. To measure apoptosis, Annexin V APC and 7AAD staining (BD Biosciences, San Jose, CA, USA) was performed according to the manufacturer's recommendations, and 10,000 events were acquired using a FACSCanto flow cytometer (BD Biosciences, San Jose, CA, USA).

Series [15] relates to MV4-11. The series can be described thus: Annexin V/7AAD apoptosis assay, MV4-11. It counts as cell-based, human. The note with it: approximately 2×IC50, 48 h. The protocol:
as §4

Series [16] concerns K562. As to the kind of experiment: Annexin V/7AAD apoptosis assay, K562. The note with it: approximately 2×IC50, 48 h. It counts as cell-based, human. Here is the method: as §4
Series [17] relates to Kasumi-1. As to the kind of experiment: Annexin V/7AAD apoptosis assay, Kasumi-1. The note with it: approximately 2×IC50, 48 h. It counts as cell-based, human. Here is the method:
as §4

The subject of series [18] is NB4. As to the kind of experiment: Annexin V/7AAD apoptosis assay, NB4. It counts as cell-based, human. The note with it: approximately 2×IC50, 48 h. Here is the method:
as §4

In series [19] the test system is KG1α. As to the kind of experiment: Annexin V/7AAD apoptosis assay, KG1α. It counts as cell-based, human. The note with it: approximately 2×IC50, 48 h. The protocol:
as §4

The target of series [20] is T1, CYP3A4 (Homo sapiens, UniProt P08684).
T1 construct: purchased Fisher Scientific, Waltham, MA; host or cells: insect cells (supersomes)
T1 sequence (P08684 whole entry): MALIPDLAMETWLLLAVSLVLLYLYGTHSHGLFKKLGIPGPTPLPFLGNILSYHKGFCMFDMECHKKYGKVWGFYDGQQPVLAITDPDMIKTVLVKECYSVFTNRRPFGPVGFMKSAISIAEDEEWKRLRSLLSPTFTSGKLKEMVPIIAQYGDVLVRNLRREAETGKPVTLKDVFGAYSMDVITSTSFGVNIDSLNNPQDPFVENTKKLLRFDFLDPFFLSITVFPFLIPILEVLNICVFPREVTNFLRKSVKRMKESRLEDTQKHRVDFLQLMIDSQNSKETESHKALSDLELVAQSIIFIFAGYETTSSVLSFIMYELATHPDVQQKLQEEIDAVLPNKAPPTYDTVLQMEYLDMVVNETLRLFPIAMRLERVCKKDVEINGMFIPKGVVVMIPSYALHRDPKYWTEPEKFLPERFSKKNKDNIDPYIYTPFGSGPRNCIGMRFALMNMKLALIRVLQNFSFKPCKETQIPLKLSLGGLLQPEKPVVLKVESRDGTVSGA
As to the kind of experiment: CYP450 3A4 inhibition. It counts as in vitro ADME. The note with it: recombinant CYP3A4 expressed in insect supersomes, probe testosterone, expressed enzyme, testosterone substrate. Here is the method:
(§5) The compound (Id) was assessed for its ability to inhibit the three major human CYP450 enzymes, 3A4, 2D6 and 2C9. Assays were run in triplicate. Expressed enzymes in insect supersomes (Fisher Scientific, Waltham, MA) were used to minimize non-specific binding and membrane partitioning issues. The 3A4 assay uses testosterone as a substrate and analysis was performed by LC/MS/MS on a Waters Xevo TQ instrument as described above using positive electrospray ionization. Assay acceptance criteria was 20% for all standards and 25% for the LLOQ. The 2D6 and 2C9 assays use fluorescent substrates (3-[2-(N,N-diethylamino)ethyl]-7-methoxy-4-methylcoumarin for 2D6; 7-methoxy-4-(trifluoromethyl) coumarin for 2C9) and were analyzed on an Envision plate reader. GraphPad® Prism v 5.04 was used for nonlinear fitting of data to generate IC50 values.

The target of series [21] is T2, CYP2D6 (Homo sapiens, UniProt P10635).
T2 construct: purchased Fisher Scientific, Waltham, MA; host or cells: insect cells (supersomes)
T2 sequence (P10635 whole entry): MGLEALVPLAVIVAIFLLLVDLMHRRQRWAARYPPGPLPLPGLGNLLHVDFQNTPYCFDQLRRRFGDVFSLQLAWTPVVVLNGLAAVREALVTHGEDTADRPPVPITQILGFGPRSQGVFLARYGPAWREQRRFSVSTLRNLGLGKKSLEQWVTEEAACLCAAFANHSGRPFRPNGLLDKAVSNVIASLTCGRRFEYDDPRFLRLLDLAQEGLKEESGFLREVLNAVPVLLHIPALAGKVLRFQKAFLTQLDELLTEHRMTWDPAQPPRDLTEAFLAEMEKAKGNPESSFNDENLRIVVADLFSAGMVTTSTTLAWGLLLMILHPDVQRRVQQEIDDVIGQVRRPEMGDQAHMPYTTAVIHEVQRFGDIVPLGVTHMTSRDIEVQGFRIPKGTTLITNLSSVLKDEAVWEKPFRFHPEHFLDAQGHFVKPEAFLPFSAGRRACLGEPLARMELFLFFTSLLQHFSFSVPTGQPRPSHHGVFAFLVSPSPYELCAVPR
As to the kind of experiment: CYP450 2D6 inhibition. It counts as in vitro ADME. The note with it: recombinant CYP2D6 expressed in insect supersomes, probe 3-[2-(N,N-diethylamino)ethyl]-7-methoxy-4-methylcoumarin, expressed enzyme, fluorescent substrate. Here is the method: as §5

Series [22] has as its target T3, CYP2C9 (Homo sapiens, UniProt P11712).
T3 construct: purchased Fisher Scientific, Waltham, MA; host or cells: insect cells (supersomes)
The series can be described thus: CYP450 2C9 inhibition. It counts as in vitro ADME. The note with it: recombinant CYP2C9 expressed in insect supersomes, probe 7-methoxy-4-(trifluoromethyl) coumarin, expressed enzyme, fluorescent substrate. Here is the method:
as §5

Entries after “also recorded” stand apart in the source; their conditions may differ. Bounds are passed on as bounds.

T3 sequence (P11712 whole entry): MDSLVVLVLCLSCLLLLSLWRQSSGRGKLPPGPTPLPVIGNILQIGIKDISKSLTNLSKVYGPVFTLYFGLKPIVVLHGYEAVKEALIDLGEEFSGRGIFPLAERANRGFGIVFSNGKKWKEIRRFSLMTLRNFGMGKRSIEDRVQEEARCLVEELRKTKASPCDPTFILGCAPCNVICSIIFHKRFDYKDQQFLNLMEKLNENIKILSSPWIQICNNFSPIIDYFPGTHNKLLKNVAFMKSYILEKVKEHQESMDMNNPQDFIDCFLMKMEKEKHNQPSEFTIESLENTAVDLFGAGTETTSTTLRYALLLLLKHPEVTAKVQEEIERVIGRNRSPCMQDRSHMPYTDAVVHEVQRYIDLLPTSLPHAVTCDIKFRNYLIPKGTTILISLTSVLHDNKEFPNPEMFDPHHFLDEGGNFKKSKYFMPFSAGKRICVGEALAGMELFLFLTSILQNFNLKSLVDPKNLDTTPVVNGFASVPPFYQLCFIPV

Consider `COc1ccc(/C=C2\N=C(C)N(c3ccc(CC(=O)NCc4ccccc4)cc3)C2=O)cc1` [KIM-161, reference compound], for which the IC50 in series [1] is 0.238 µM; in [2], 0.282 µM; in series [3] it was 2.14 µM; in [4], 1.14 µM; in series [5] it was 0.294 µM; in [6] it was 0.275 to 0.893 µM. Besides, the “effect on cell cycle” value in series [7] was “cell cycle arrest at pre-G and G2/M phases”. Also, the apoptosis result in [8] is recorded as “promoted apoptosis through activation of caspase-3”. Besides, in series [9], the maximum aqueous solubility was 19.9 µM. The “substrate for major CYP450 metabolizing enzymes (3A4, 2D6, and 2C9)” value in series [10] is reported as “not a substrate”.

As for `CC1=N/C(=C\c2ccc(C)o2)C(=O)N1c1ccc(CC(=O)NCc2ccccc2)cc1` [Compound (Id), 2-Methyl-4-(5-methyl-2-furyl)methylene-1-[4-(benzylaminocarbonylmethyl)phenyl]-5-oxo-1H-imidazole], the IC50 is 0.443 µM in [1] (Homo sapiens, HL-60); 0.437 µM in series [2] (Homo sapiens, K562); > 10 µM in series [20]; > 10 µM in series [21]; > 10 µM in series [22]. The “apoptosis in DLD1 cells” value in series [11] is “increased apoptosis”. The “apoptosis in HCT116 cells” value in series [12] was “increased apoptosis”. Further, in series [13], the “apoptosis in HT29 cells” value is “increased apoptosis”. The “apoptosis in HL60 cells” value in [14] was “strong apoptosis”. For the same compound, the “apoptosis in MV4-11 cells” value in [15] is listed as “strong apoptosis”. In addition, in series [16], the “apoptosis in K562 cells” value was “strong apoptosis”. Moreover, the “apoptosis in Kasumi-1 cells” value in series [17] is given as “strong apoptosis; also recorded: very strong induction of apoptosis”. The “apoptosis in NB4 cells” value in [18] is given as “strong apoptosis”. In series [19], the “apoptosis in KG1α cells” value is “strong apoptosis”.
